For series [1] the following is noted: after ingestion, cited from earlier work.
Series [2] deals with gut microbiota starter cultures (human feces from 6 volunteers). In words: ex vivo simulation of colon fermentation with human fecal starter cultures; butyrate generation by chromatography. The class given is cell-based. Particulars: for Butyrate Generation: after 48 hours of fermentation. As for the experimental part: In the first type of experiment, an ex-vivo model system is used. In this model system, an ex vivo simulation of the fermentation that occurs in the colon was used. Human feces from 6 volunteers were used as a gut microbiota starter cultures. The test materials were added to this system and butyrate generation was determined after 48 hours of fermentation, compared to controls for each set. Butyrate generation was measured using chromatography.
In this series of experiments the human equivalent dose (HED) was determined to be 1 gram/day of ingested prebiotic in-vivo corresponds to approximately 1 g/L in-vitro dose. Therefore a 10 mg/ml in-vitro dose is equivalent to 10 mg/day HED.

In a further series the test system is Caenorhabditis elegans. The class given is in vivo. As for the experimental part: In the second type of experiment, an animal model system was used to study changes in the gut microbiome behavior. Caenorhabditis elegans (C. elegans), a nematode commonly used as an organism model, was used in the present study. Reduction of oxidative stress was determined in the C. elegans model. Butyrate has previously been shown in rodent and porcine studies to ameliorate oxidative stress in the intestine generated via hydrogen peroxide or Diquat dibromide exposure. Thus, an oxidative stress assay is a rapid indirect method of determining whether the tributyrin doses proposed in this study can produce beneficial butyrate in vivo.
Previous studies have shown that this concentration of Paraquat will kill adult C. elegans in liquid culture within 24 hours of exposure via the generation of superoxide anions that lead to oxidative damage of vital cellular components. The standard methods of growing the animals, treating with Paraquat, washing out the Paraquat, and observing survival at 12 hours post Paraquat treatment have been previously described. One group received only Paraquat as a positive control, while a second group received nothing as a negative control, and all others received the therapeutic treatments. […]
In the C. elegans series of studies, the human equivalent dose (HED) of tributyrin was determined in the following manner. A typical human stomach size of 250 ml was used as a baseline. […] Tributyrin is soluble in DMSO up to a maximum concentration of 100 mg/ml, which is equivalent to 330.73 mM. C. elegans can be exposed to a 1% solution of DMSO in aqueous standard nematode growth media without compromising its viability. […]

The conditions of series [3]: cited from earlier work.
Series [4] can be described thus: solubility of tributyrin in DMSO. The class given is physicochemical. Particulars: organic solvent or mixture, equivalent of 100 mg/ml, read-out: maximum concentration soluble in DMSO. The procedure: In the C. elegans series of studies, the human equivalent dose (HED) of tributyrin was determined in the following manner. A typical human stomach size of 250 ml was used as a baseline. 100 mg per serving per day of tributyrin for a 60 Kg adult is equivalent to 400 μg/ml (˜1.32 mM). Tributyrin is soluble in DMSO up to a maximum concentration of 100 mg/ml, which is equivalent to 330.73 mM. C. elegans can be exposed to a 1% solution of DMSO in aqueous standard nematode growth media without compromising its viability. Doses between 10 mg HED [40 μg/ml (˜0.13 mM)], and 100 mg HED [400 μg/ml (˜1.32 mM)] were used.

In series [5] the test system is intestinal barrier and liver. The note with it: ethanol-exposed mice, diet supplemented 5 mM, 10 days; cited from earlier work.
For series [6], the system named is mucosal damage in experimental colitis. The note with it: DSS colitis, 5 g/kg diet, cited from earlier work.
Where [7] appears, read: Example 4, probiotic alone, test dose 5*10^7 CFU/mL, blank 2.78.

Like-named read-outs stand apart in the source and are kept apart here. Where only a bound is given, the exact number is not on record here.

In the case of `CCCC(=O)[O-].[Na+]` [sodium butyrate, Sodium butyrate, reference compound], the “peak time of butyrate in plasma” value in series [1] is 15 to 45 min.
With Inulin [reference compound], in series [2] (Example 1, test dose 4 g/L (HED 4 g per day), blank 2.86), the “Butyrate Generation” value is 3.62 mM.
As to `C[n+]1ccc(-c2cc[n+](C)cc2)cc1` [Paraquat, reference compound], in the series with Caenorhabditis elegans (Paraquat 250 nM alone (positive control), negative control 98.69), the “% Survival of Worms at 12 hours” value came to 67.63%.
On to Limosilactobacillus reuteri, for which, in series [2] (setting [7]), the “Butyrate Generation” value is given as 2.72 mM.
Turning to `CCCC(=O)OCC(COC(=O)CCC)OC(=O)CCC` [Tributyrin, propane-1,2,3-triyl tributyrate], the “Butyrate Generation” value in series [2] (Example 1, test dose 50 mg/L (HED 50 mg per day), blank 2.86) is on record as 3.22 mM; in series [2] (Example 1, test dose 100 mg/L (HED 100 mg per day), blank 2.86), 3.73 mM; in series [2] (Examples 2 and 4, test dose 100 mg/L (HED 100 mg per day), blank 2.78) it was 3.51 mM. Further, the “butyrate generation compared with inulin at HED 4 g/day” value in series [2] (Example 1, tributyrin HED 50 to 100 mg/day, in words) was “about the same amount of butyrate”. The “butyrate generation compared with XOS at HED 1 g/day” value in series [2] (Example 2, tributyrin 100 mg/day HED, in words) is recorded as “equivalent butyrate generation”. Also, the “maximum concentration soluble in DMSO” value in series [3] was no more than 100 mg/mL. The solubility in series [4] turned out to be 331 mM. Besides, the liver injury result in series [5] is listed as “mitigated liver injury”. In addition, the “tight-junction (TJ) protein staining in proximal colon and ileum” value in series [5] was “maintained immunoreactive staining intensity of TJ proteins”. The “peak time of butyrate in plasma” value in series [1] (in words) is given as “on the order of hours”. The mucosal architecture entry in series [6] (versus non-supplemented mice) is recorded as “improved mucosal architecture”. Further, the intestinal permeability entry in series [6] was “reduced intestinal permeability”. In series [6], the “oxidative stress (hydroperoxide)” value is listed as “lower level of hydroperoxide”. Moreover, in the series on Caenorhabditis elegans (Example 3, tributyrin HED 10 and 100 mg/day, in words), the oxidative stress entry is listed as “significant reduction in oxidative stress”. Besides, the “% Survival of Worms at 12 hours” value turned out to be 97.24% in the series with Caenorhabditis elegans (test dose 40 ug/mL (HED 10 mg per day), no Paraquat); 68.86% in the series with Caenorhabditis elegans (test dose 40 ug/mL + Paraquat 250 nM (HED 10 mg per day), Paraquat alone 67.63); 99.23% in the series on Caenorhabditis elegans (test dose 400 ug/mL (HED 100 mg per day), no Paraquat); 73.63% in the series with Caenorhabditis elegans (test dose 400 ug/mL + Paraquat 250 nM (HED 100 mg per day), Paraquat alone 67.63).
Regarding Lacticaseibacillus rhamnosus GG [LGG], the “Butyrate Generation” value in series [2] (setting [7]) is listed as 3.15 mM.
With “partially hydrolyzed guar gum [PHGG, reference compound]”, the “% Survival of Worms at 12 hours” value in the series on Caenorhabditis elegans (test dose 20 mg/mL (HED 5 g per day), no Paraquat) is given as 96.24%; with Caenorhabditis elegans (test dose 20 mg/mL + Paraquat 250 nM (HED 5 g per day), Paraquat alone 67.63), 49.39%; in the series on Caenorhabditis elegans (test dose 40 mg/mL (HED 10 g per day), no Paraquat) it was 96.27%; with Caenorhabditis elegans (test dose 40 mg/mL + Paraquat 250 nM (HED 10 g per day), Paraquat alone 67.63) it was 62.99%.
Take “xylooligosaccharide [XOS, reference compound]”: in series [2] (Examples 2 and 4, test dose 1 g/L (HED 1 g per day), blank 2.78), the “Butyrate Generation” value is listed as 3.30 mM.

Source of the values: patent US20220264927A1, “ORAL DOSE COMPOSITIONS OF TRIBUTYRIN FOR THE GENERATION OF BUTYRATE IN THE GUT” (NutriScience Innovations LLC, priority 2021, published 2022).
